Here are results for six compounds from patent EP0433683A2, “Use of benzothiazepines as potentiators of anti-cancer drugs” (MARION MERRELL DOW INC., priority 1989, dated 1991).

Structures can show the parent of a compound that is named as a salt.

Data set [1] is described as follows: Anticonvulsant activity (AcA), method of Zobrist et al. In kind it is in vivo. Also noted: key: 0 being no observed activity; 5 being the most active. To be noted: scale from 0 to 5. Here is the method: Anticonvulsant activity (AcA) was determined generally by the method of Zobrist et al., European Patent Application EP.... (our ref.: A 634 EP) entitled, "BENZOTHZAZEPINE ANTI-SEIZURE METHOD," and filed on even date herewith; see also US-A-4,879,289.

Data set [2] can be described thus: Anti-depressant activity (AdA), visual observation. In kind it is in vivo. The following applies: scale from 0 to 5. Here is the method: Anti-depressant activity (AdA) was determined by visual observation.
Data set [3] can be described thus: Cardiovascular activity (CvA), isolated tissue. The following applies: scale from 0 to 5. Here is the method: Cardovascular activity (CvA) was determined by the use of isolated tissue.
For another data set, the system named is VCR-resistant cell line. To be noted: nontoxic concentration of diltiazem hydrochloride; cited from earlier work.

Consider `COc1ccc([C@@H]2Sc3ccccc3N(CCN(C)C)C(=O)[C@@H]2OC(C)=O)cc1` [Diltiazem, d-cis-5-[2-(dimethylamino)ethyl]-2,3-dihydro-3-hydroxy-2-(4-methoxyphenyl)-1,5-benzothiazepin-4(5H)-one acetate (ester), reference compound], for which, in data set [1], the AcA was determined as 5. Further, in data set [2], the AdA amounted to 2. In turn, `CCCCC(=O)O[C@H]1C(=O)N(CCN(C)C)c2ccccc2S[C@H]1c1ccc(OC)cc1.O=C(O)/C=C/C(=O)O` [d-cis-ML1013] displayed an AcA in data set [1] of 0. In data set [3], the CvA worked out at 1. As to `COc1ccc([C@@H]2Sc3ccccc3N(CCN(C)C)C(=O)[C@@H]2OC(=O)CC(C)C)cc1.O=C(O)/C=C/C(=O)O` [d-cis-ML1014], the AcA in data set [1] is on record as 1. The compound further yielded a CvA in data set [3] of 1. In turn, `COc1ccc([C@@H]2Sc3ccccc3N(CCN(C(C)C)C(C)C)C(=O)[C@@H]2OC(C)=O)cc1.Cl` [d-cis-ML1016] showed an AcA in data set [1] of 5. This compound also returned an AdA in data set [2] of 1. In data set [3], this compound had a CvA of 2. For `COc1ccc([C@@H]2Sc3ccccc3N(CCN(C)C)C(=O)[C@@H]2OC(C)=O)cc1` [diltiazem hydrochloride, Diltiazem hydrochloride], in the data set with VCR-resistant cell line, the “increase in vincristine (VCR) cytotoxicity” value is listed as 54 fold. In data set [1], `COc1ccc([C@H]2Sc3ccccc3N(CCN(C)C)C(=O)[C@H]2OC(C)=O)cc1` [l-cis-DTZ] yielded an AcA of 3.
